From publication PMC11813147, “Bioactivity assessment of peptides derived from salted jellyfish (Rhopilema hispidum) byproducts” (PLOS ONE, 2025)

Experiments:
[1] = ABTS radical scavenging assay; type: biochemical; conditions: for ABTS, mean±SD / ABTS: supplement tables
Procedure, shortened: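 ABTS radical, generated with 2.45 mM potassium persulfate (12-16 h, dark, room temperature) and diluted to A734 0.74 ± 0.03, was mixed with sample 10:190 μL sample:ABTS and kept 7 min in the dark. Scavenging % from absorbance drop at 734 nm versus reagent-only control; TEAC from Trolox standard curve, as mM TE/mg protein.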

RAW 264.7 [2] = assay: Anti-inflammation assay: released NO in LPS-stimulated RAW 264.7 (Griess); type: cell-based, Murine; conditions: then 1 µg/mL LPS 24 h; for Released NO: peptide 10 µg/mL 1 h; for Released NO, mean±SD: peptide 10 µg/mL pre-treatment 1 h, Griess reagent, n = 3
Procedure, shortened: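 RAW 264.7 cells pre-treated 1 h with peptide samples at 10 µg/mL, then stimulated with 1 µg/mL LPS for 24 h. NO released into conditioned medium quantified by Griess reagent against an NO calibration curve; unstimulated cells served as negative control.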

[3] = Ferric reducing antioxidant power (FRAP) assay; type: biochemical
Procedure, shortened: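 Sample mixed with FRAP reagent (300 mM acetate buffer pH 3.6, 10 mM TPTZ in 40 mM HCl, 20 mM FeCl3; 10:1:1) and kept 15 min in the dark; absorbance at 593 nm. Values from an FeSO4 standard curve, as mM FeSO4 equivalent per mg protein.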

[4] = DPPH radical scavenging assay; type: biochemical; conditions: supplement tables; for DPPH, mean±SD: n = 3
Procedure, shortened: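 Sample mixed with 0.1 mM DPPH in 70% ethanol and kept 30 min in the dark at room temperature; absorbance read at 517 nm. Scavenging % taken from absorbance relative to a reagent-only control; Trolox standard curve gives TEAC as mM TE/mg protein.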

RAW 264.7 [5] = assay: Cytotoxicity assessment (MTT); type: cell-based, Murine; conditions: peptide 10 µg/mL, 72 h; for Cell viability, mean±SD: relative to untreated cells, n = 3, SD
Procedure, shortened: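 RAW 264.7 murine macrophages seeded at 1 x 10^5 cells/well and exposed to peptides at 10 µg/mL for 72 h. MTT (0.5 mg/mL) added for 3 h, formazan dissolved in DMSO and read at 570/630 nm; viability as % of untreated after blank subtraction.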

[6] = 10 µL sample + 190 µL FRAP solution, 15 min dark, 593 nm, FeSO4 standard curve, mean ± SD, n = 3, SD

| Sequence | ABTS, mean±SD ([1]; mean ± SD, n = 3) | ABTS ([1]; replicate 1) [TE/mg protein] | ABTS ([1]; replicate 2) [TE/mg protein] | ABTS ([1]; replicate 3) [TE/mg protein] | Released NO (RAW 264.7 [2]; replicate 1) [µM] | Released NO (RAW 264.7 [2]; replicate 2) [µM] | Released NO (RAW 264.7 [2]; replicate 3) [µM] | Released NO, mean±SD (RAW 264.7 [2]) [µM] | FRAP [3, 6] | FRAP ([3]; supplement tables, replicate 1) [mM FeSO4/mg protein] | FRAP ([3]; supplement tables, replicate 2) [mM FeSO4/mg protein] | FRAP ([3]; supplement tables, replicate 3) [mM FeSO4/mg protein] | DPPH, mean±SD [4] | DPPH ([4]; replicate 1) [TE/mg protein] | DPPH ([4]; replicate 2) [TE/mg protein] | DPPH ([4]; replicate 3) [TE/mg protein] | Cell viability, mean±SD (RAW 264.7 [5]) [%] | Cell viability (RAW 264.7 [5]; replicate 1) [%] | Cell viability (RAW 264.7 [5]; replicate 2) [%] | Cell viability (RAW 264.7 [5]; replicate 3) [%] | other results |
| --- | --- | --- | --- | --- | --- | --- | --- | --- | --- | --- | --- | --- | --- | --- | --- | --- | --- | --- | --- | --- | --- |
| PMETDDQPNN [P17, synthesized peptide identified from jellyfish fraction PUR20C] | 4.64 TE/mg protein | 4.11 | 4.11 | 5.71 | 34.48 | 34.82 | 34.82 | 34.71 | 6.50±1.59^G mM FeSO4/mg protein | 7.63 | 7.21 | 4.68 | 5.23±0.53^D TE/mg protein | 4.70 | 5.23 | 5.76 | 83.65 | 83.47 | 83.83 | 83.65 | – |
| RARVVPMY [P6, synthesized peptide identified from jellyfish fraction PUR20C] | 139.87±0.50^A TE/mg protein | 139.34 | 139.94 | 140.34 | 34.82 | 35.51 | 39.65 | 36.66 ± 2.61 | 10.78±0.63^D mM FeSO4/mg protein | 10.15 | 11.42 | 10.78 | 3.28 TE/mg protein | 3.11 | 2.84 | 3.90 | 85.47 | 92.97 | 82.77 | 80.66 | ABTS radical scavenging activity (TEAC) ([1]; 10 µL sample + 190 µL ABTS solution, 7 min dark, 734 nm, Trolox standard curve, mean ± SD, n = 3): highest activity |
| RPLAKIIP [P8, synthesized peptide identified from jellyfish fraction PUR20C] | 3.11 TE/mg protein | 2.51 | 3.31 | 3.51 | 37.58 | 37.93 | 34.82 | 36.78 | 9.31 mM FeSO4/mg protein | 9.31 | 9.52 | 9.10 | 2.22 TE/mg protein | 1.78 | 1.78 | 3.11 | 83.71 | 84.35 | 85.23 | 81.54 | – |
| TDSPAPSETTD [P2, synthesized peptide identified from jellyfish fraction PUR20C] | 2.91 TE/mg protein | 3.11 | 2.71 | 2.91 | 38.27 | 37.24 | 37.58 | 37.70 | 7.63 mM FeSO4/mg protein | 7.21 | 7.63 | 8.05 | 2.84 TE/mg protein | 2.31 | 3.11 | 3.11 | 85.70 | 83.12 | 86.46 | 87.52 | – |
